From publication PMC11251039, “Harnessing cholesterol uptake of malaria parasites for therapeutic applications” (EMBO Molecular Medicine, 2024)
Values joined by “and” are separate entries in the source; they are usually repeats but may differ in a detail not shown here. Equal entries are not always repeated.

How the values were obtained:
P. berghei liver stages = assay: Plasmodium berghei liver stage growth inhibition assay (luminescence, in Huh7 cells); settings: for P. berghei liver stage growth, dose-response data points (Figure 3A): replicate data points; for P. berghei liver stage growth, dose-response data points (Figure 3A) / Figure 3E dose-response value (replicates): listed as BC5B
[1] = system: human foreskin fibroblasts (HFF); assay: Human foreskin fibroblast growth inhibition assay (SYBR Safe); type: cell-based; settings: 72 h
Protocol: HFF cell growth inhibition assays commenced by adding 5000 cells to each well of a 96-well plate. 10 µg/mL cycloheximide was used as a no-growth control. DNA replication (indicating growth) was measured at the specified time using SYBR Safe DNA Gel Stain (Invitrogen 33102) and a fluorescence microplate reader. […]
Human Foreskin Fibroblast Growth Inhibition Assays:
The HFF cell line was maintained under routine culture conditions in DMEM containing 3.7 g/L NaHCO3 supplemented with 10% v/v newborn calf serum (NCS), 50 units/mL penicillin, 50 μg/mL streptomycin, 10 μg/mL gentamicin, 0.25 μg/mL amphotericin B, and 0.2 mM L-glutamine at 37 °C in a humidified 5% CO2 incubator. […]
HFF cells were detached from a flask using 0.25% Trypsin with 0.2 g/L EDTA (Sigma T4049) and washed with culture media. Cells were incubated with a serial dilution of each compound, or media/DMSO alone. Cycloheximide at 10 µg/mL was used as a positive control to determine background fluorescence. Approximately 5 000 cells were seeded in each well. Plates were incubated at 37 °C for 72 hours (until reaching confluency) and the media was removed. Plates were transferred to a -18 °C freezer. Plates were thawed and SYBR Safe DNA Gel Stain (final concentration 1/10,000) diluted in lysis buffer (as above) was added. Fluorescence was read at 490 nm excitation/ 520 nm emission on a FLUOstar Optima fluorescence plate reader. […]

[2] = system: P. falciparum stage V gametocytes; assay: P. falciparum gametocyte viability assay (MitoTracker, flow cytometry), stage V; type: cell-based, Plasmodium falciparum; settings: 48 h
Protocol: Gametocyte assays commenced seven days (stage III–IV) or ten days (stage V) post-invasion. […]
Plasmodium falciparum Gametocyte Viability Assays:
Asexual P. falciparum parasites were induced to form gametocytes as described (21).
Synchronized trophozoite-stage parasites at 2% parasitaemia were incubated overnight and […]
haematocrit maintained at 4%. On the subsequent day (designated as day 0) of gametocytogenesis, the culture containing early ring-stage parasites was first purified by sorbitol synchronisation to remove asynchronous trophozoites, and passed through a magnetic field in a sterile MACS® column in a SuperMACSTM II magnet to remove remaining late-stage parasites or later-stage gametocytes (negative selection). The culture medium was supplemented with 50 mM N-acetyl-D-glucosamine to inhibit asexual parasite proliferation, and changed daily. Sorbitol treatment was performed on Day 1, 5, and 6 to further remove asexual parasites. Gametocytes were magnetically enriched (positive selection) in a sterile column with a SuperMACSTM II magnet and eluted in culture media with 50 mM N-acetyl-D-glucosamine. These gametocytes were incubated overnight at 37 °C under microaerophilic conditions, and purity was assessed by examination under a light microscope (400× […]
Gametocyte viability was assessed as described by Ridgway et al. (21) with modifications.
Compounds or solvent controls (DMSO) were serially diluted across 96-well plates in culture media supplemented with 50 mM N-acetyl-D-glucosamine. Culture media without compound was used as a negative control. […]
control to determine background gametocyte fluorescence. Stage III-IV gametocytes (Day 7) or stage V (day 10) gametocytes were concentrated and added to the plate with 200 µL per well. The plate was incubated for 48 hours at 37 °C under humid microaerophilic conditions.
Parasites were then stained with 500 nM MitoTrackerTM Deep Red FM and 5 μg/ml Hoechst […]
cytometer as described above. […]
excluded. Live (positive) and dead (negative) gametocytes were differentiated by […]
percentage of each was calculated. […]

[3] = system: Toxoplasma gondii tachyzoites (RH strain); assay: Toxoplasma growth inhibition assay (tdTomato fluorescence, in HFF cells); type: cell-based; settings: 72 h
Protocol: Fluorescence was measured daily with a fluorescence microplate reader for one week, and the background fluorescence from the time 0 reading was subtracted from all other measurements. […]
Toxoplasma Growth Inhibition Assays:
Growth inhibition was investigated as described previously (26). Fluorescent Toxoplasma gondii parasites were inoculated into an optical bottom 96-well plate containing confluent human foreskin fibroblast (HFF) host cells at a density of 2,000 parasites/well, with a serial dilution of each compound, or culture media/DMSO (0.1% v/v) alone. Plates were measured daily with a FluoStar Optima fluorescence plate reader at 540 nm excitation and 590 nm emission for one week, and the background fluorescence from the time 0 reading was subtracted from all other measurements. […]

[4] = system: human embryonic kidney cells (HEK293); assay: Human embryonic kidney cell viability assay (MTT); type: cell-based; settings: Homo sapiens; 96 h, HEK293; read-out: IC50, human embryonic kidney cell inhibition (viability)
Procedure, shortened: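 HEK293 cells, 5,000 per well, exposed to serially diluted compound for 96 hours; 10 µg/mL cycloheximide as background control. Viability by MTT (0.45 mg/mL, 2 h), SDS solubilisation, absorbance at 570 nm.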

COc1cc(NC(C)CCCNC(=O)CCC(=O)O[C@H]2CC[C@H]3[C@@H]4CC=C5C[C@@H](O)CC[C@]5(C)[C@H]4CC[C@]23C)c2ncccc2c1 (stereo partly shown) [C-17-PQ]
P. berghei liver stage growth, dose-response data points (Figure 3A) (P. berghei liver stages; 0.015241580 uM): 99.66 and 97.59 and 102.8 and 91.81 and 95.85 and 112.3 and 109.1 and 88.24 and 102.7 | P. berghei liver stage growth, dose-response data points (Figure 3A) (P. berghei liver stages; 0.045724740 uM): 109 and 90.36 and 103.8 and 84.25 and 83.27 and 86.47 and 94.66 and 88.64 and 73.11 | P. berghei liver stage growth, dose-response data points (Figure 3A) (P. berghei liver stages; 0.137174210 uM): 94.49 and 73.84 and 68.67 and 79.23 and 76.1 and 53.42 and 81.73 and 93.15 and 81.23 | Figure 3E dose-response value (replicates) (P. berghei liver stages; 0.145312500 uM): 100.6 and 88.31 and 76.37 and 94.25 | Figure 3E dose-response value (replicates) (P. berghei liver stages; 0.290625000 uM): 94.35 and 94.79 and 85.61 and 89.45 and 87.37 and 88.47 and 84.93 and 94.4 and 94.85 and 93.84 and 89.47 and 91.21 | P. berghei liver stage growth, dose-response data points (Figure 3A) (P. berghei liver stages; 0.411522630 uM): 13.94 and 18.07 and 25.3 and 9.363 and 14.77 and 12.23 and 25.32 and 28.82 and 21.11 | Figure 3E dose-response value (replicates) (P. berghei liver stages; 0.581250000 uM): 102.2 and 80.25 and 95.76 and 90.1 and 83.44 and 75.35 and 88.55 and 97.11 and 92.72 and 86.07 and 93.7 and 93.03 | Figure 3E dose-response value (replicates) (P. berghei liver stages; 1.162500000 uM): 80.19 and 74.87 and 75.85 and 88.24 and 81.26 and 89.14 and 75.39 and 78.14 and 86.59 and 91.1 and 86.79 and 86.51 | P. berghei liver stage growth, dose-response data points (Figure 3A) (P. berghei liver stages; 1.234567900 uM): 1.549 (2×) and -1.549 and 0.4997 and 0.5648 and 2.455 and 1.57 and 4.175 and 3.674 | Figure 3E dose-response value (replicates) (P. berghei liver stages; 2.325000000 uM): 53.31 and 45.1 and 53.66 and 84.74 and 82.81 and 85.04 and 49.27 and 57.96 and 49.51 and 76.01 and 76.49 and 71.94 | P. berghei liver stage growth, dose-response data points (Figure 3A) (P. berghei liver stages; 3.703703700 uM): -1.549 and -0.5164 and -3.614 and 0.04345 and -0.02173 and 0.1086 and 0.3674 and 0.5678 and 1.47 | Figure 3E dose-response value (replicates) (P. berghei liver stages; 4.650000000 uM): 7.681 and 6.67 and 6.188 and 47.84 and 67.52 and 65.25 and 8.114 and 8.015 and 9.768 and 28.34 and 27.7 and 22 | Figure 3E dose-response value (replicates) (P. berghei liver stages; 9.300000000 uM): 1.871 and 0.7826 and 2.182 and 4.713 and 13.07 and 10.27 and 2.653 and 3.064 and 2.474 and 6.135 and 6.853 and 6.628 | P. berghei liver stage growth, dose-response data points (Figure 3A) (P. berghei liver stages; 11.111111100 uM): -2.582 (2×) and -3.614 and -0.0869 and 0.1086 and 0.4997 and 0.5678 and 0.4676 and 0.7682 | Figure 3E dose-response value (replicates) (P. berghei liver stages; 18.600000000 uM): 1.555 and 0.8085 and 1.399 and 1.289 and 0.3453 and 0.9092 and 0.9717 and 1.016 and 1.705 and 1.904 and 2.379 and 2.285 | P. berghei liver stage growth, dose-response data points (Figure 3A) (P. berghei liver stages; 33.333333300 uM): -2.582 and -1.549 and -0.5164 and -0.02173 and 0.3041 (2×) and 0.3674 (2×) and 0.9686 | Figure 3E dose-response value (replicates) (P. berghei liver stages; 37.200000000 uM): 2.576 and 1.923 and 1.736 and -0.9169 and -0.5313 and 0.3203 and 0.31 and 1.213 and 0.6856 and 1.324 and 1.043 and 1.236 | P. berghei liver stage growth, dose-response data points (Figure 3A) (P. berghei liver stages; 100.000000000 uM): 0.5164 and -1.549 and 1.549 and 0.04345 and 0.4997 and 0.1086 and 0.5678 (2×) and 0.668 | Fold reduction in IC50 compared to primaquine alone (P. berghei liver stages; 48 h): ~ 15 fold | IC50 (P. berghei liver stages; Plasmodium berghei, Huh-7, 48 h, read-out: IC50, P. berghei liver stage growth inhibition): 200 nM | Maximal inhibition of fibroblast growth at the range of concentrations tested ([1]; HFF): ≤ 30% | IC50 ([1]; Homo sapiens, Fibroblast, read-out: IC50, human fibroblast growth inhibition): > 290 µM | Fold reduction in IC50 compared to primaquine alone [2]: > 2 fold | viability at 3.125 µM ([2]; Plasmodium falciparum, read-out: Gametocyte stage V viability, percentage of control, 3.125000000 uM, 48 h, replicate values, source data Fig. 2D): 74.7% | IC50 ([2]; Plasmodium falciparum, read-out: IC50, P. falciparum gametocyte stage V inhibition): 6.8 µM | Fold difference in IC50 to primaquine ([3]; listed as steroid-primaquine conjugate): ~ 3.5 fold and 3 fold | IC50 ([3]; Toxoplasma gondii, HFF, read-out: IC50, T. gondii tachyzoite growth inhibition): 2800 nM | IC50 [4]: > 50 µM
